In patent US9879050B2, “Substituted urea depsipeptide analogs as activators of the CLPP endopeptidase” (priority 2013, dated 2018):
Converted amounts (≈) assume the structure as drawn. Like-named read-outs stand apart in the source and are kept apart here.

Assays:
S. pyogenes ATCC 700294 = experiment: Minimal inhibitory concentration, microbroth dilution; format: cell-based
Summary of the method: (§1)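 Twofold serial dilutions in broth per CLSI M7-A7 microbroth dilution, incubated aerobically overnight at 37° C. MIC read visually as lowest concentration preventing bacterial growth.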

S. pneumoniae R6 = experiment: as above; format: cell-based
Summary of the method: as §1

S. aureus USA 300 ΔClpP = experiment: as above; format: cell-based, Staphylococcus aureus; conditions: ClpP inactivated strain
Summary of the method: (§2)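 Compound was diluted twofold in the appropriate broth. Bacterial suspension (approx. 10^5 cfu/mL) was then added in equal volume, giving a maximum test concentration of 200 μM. After aerobic overnight incubation at 37 °C, wells were inspected visually for growth.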

[1] = test system: Vero (kidney epithelial cells; ATCC CCL-81); experiment: Cytotoxicity assay, CellTiter-Glo cell viability; format: cell-based; conditions: Vero cells, 72 hours
Summary of the method: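 Vero cells seeded overnight at 37 °C in DMEM with 10% FBS, then exposed to serial dilutions of compound for 72 h. Viability read by CellTiter-Glo luminescence; IC50 from duplicates, given as the range of two independent experiments.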

B. subtilis ATCC 23857 = experiment: Minimal inhibitory concentration, microbroth dilution; format: cell-based
Summary of the method: as §2

S. aureus ATCC 29213 = experiment: as above; format: cell-based
Summary of the method: as §2

S. aureus NRS70 = experiment: as above; format: cell-based
Summary of the method: as §2

S. aureus USA 300 = experiment: as above; format: cell-based; conditions: Staphylococcus aureus, USA300; read-out: Minimal Inhibitory Concentration S. aureus USA 300
Summary of the method: as §2

E. coli K12ΔtolC = experiment: as above; format: cell-based
Summary of the method: as §2

S. pneumoniae DAW27 = experiment: as above; format: cell-based; conditions: Streptococcus pneumoniae, DAW27; read-out: Minimal Inhibitory Concentration S. pneumoniae DAW27
Summary of the method: as §2

[2] = Streptococcus pyogenes, ATCC700294; read-out: Minimal Inhibitory Concentration S. pyogenes ATCC 700294
[3] = Streptococcus pneumoniae, R6; read-out: Minimal Inhibitory Concentration S. pneumoniae R6
[4] = Bacillus subtilis, ATCC23857; read-out: Minimal Inhibitory Concentration B. subtilis ATCC 23857
[5] = Staphylococcus aureus, ATCC29213; read-out: Minimal Inhibitory Concentration S. aureus ATCC 29213
[6] = Staphylococcus aureus, NRS70; read-out: Minimal Inhibitory Concentration S. aureus NRS70

Structure (SMILES)	MIC (S. pyogenes ATCC 700294; Streptococcus pyogenes, ATCC700294, read-out: Minimal Inhibitory Concentration S. pyogenes ATCC 700294) [µM]	MIC (S. pneumoniae R6; Streptococcus pneumoniae, R6, read-out: Minimal Inhibitory Concentration S. pneumoniae R6) [µM]	Minimal Inhibitory Concentration S. aureus USA 300 ΔClpP (S. aureus USA 300 ΔClpP) [µM]	IC50 [1] [µM]	MIC (B. subtilis ATCC 23857; Bacillus subtilis, ATCC23857, read-out: Minimal Inhibitory Concentration B. subtilis ATCC 23857) [µM]	MIC (S. aureus ATCC 29213; Staphylococcus aureus, ATCC29213, read-out: Minimal Inhibitory Concentration S. aureus ATCC 29213) [µM]	MIC (S. aureus NRS70; Staphylococcus aureus, NRS70, read-out: Minimal Inhibitory Concentration S. aureus NRS70) [µM]	MIC (S. pyogenes ATCC 700294; [2]) [µM]	MIC (S. pneumoniae R6; [3]) [µM]	MIC (B. subtilis ATCC 23857; [4]) [µM]	MIC (S. aureus ATCC 29213; [5]) [µM]	MIC (S. aureus NRS70; [6]) [µM]	MIC (S. aureus USA 300) [µM]	Minimal Inhibitory Concentration E. coli K12ΔtolC (E. coli K12ΔtolC) [µM]	MIC (S. pneumoniae DAW27) [µM]
Cc1ccc(NC(=O)N[C@@H](Cc2cc(F)cc(F)c2)C(=O)N[C@@H]2C(=O)N3C[C@H](O)CC3C(=O)N(C)[C@@H](C)C(=O)N[C@@H](C)C(=O)N3C[C@@H](C)CC3C(=O)O[C@H]2C)cc1 (stereo partly drawn) [Compound 31, (S)-3-(3,5-Difluorophenyl)-N-((2S,6S,9S,11aS,13R,17S,18S,20aS)-13-Hydroxy-2,6,9,10,18-Pentamethyl-5,8,11,16,20-Pentaoxohexadecahydro-1H,5H,16H-Dipyrrolo[2,1-C:2′,1′-L][1]Oxa[4,7,10,13]Tetraazacyclohexadecin-17-Yl)-2-(3-(P-Tolyl)Ureido)Propanamide]	0.78 (≈ 0.622 µg/mL)	0.195 (≈ 0.156 µg/mL)	>200	> 100	0.39 (≈ 0.311 µg/mL)	0.39 (≈ 0.311 µg/mL)	0.39 (≈ 0.311 µg/mL)	–	–	–	–	–	–	–	–
CCc1ccc(NC(=O)N[C@@H](Cc2cc(F)cc(F)c2)C(=O)N[C@@H]2C(=O)N3CCCC3C(=O)N(C)[C@@H]([C@H](C)O)C(=O)N[C@@H](C)C(=O)N3C[C@H](C)CC3C(=O)O[C@H]2C)cc1 (stereo partly drawn) [Compound 42, (S)-3-(3,5-Difluorophenyl)-2-(3-(4-Ethylphenyl)Ureido)-N-((2R,6S,9S,11aS,17S,18S,20aS)-9-((S)-1-Hydroxyethyl)-2,6,10,18-Tetramethyl-5,8,11,16,20-Pentaoxohexadecahydro-1H,5H,16H-Dipyrrolo[2,1-C:2′,1′-L][1]Oxa[4,7,10,13]Tetraazacyclohexadecin-17-Yl)Propanamide]	–	–	100	–	–	–	–	0.05 (≈ 0.0413 µg/mL)	0.01 (≈ 0.00826 µg/mL)	0.01 (≈ 0.00826 µg/mL)	0.05 (≈ 0.0413 µg/mL)	0.02 (≈ 0.0165 µg/mL)	0.1 (≈ 0.0826 µg/mL)	–	–
C[C@H]1CC2C(=O)O[C@@H](C)[C@H](NC(=O)[C@H](Cc3cc(F)cc(F)c3)NC(=O)Nc3ccc(OC(F)(F)F)cc3)C(=O)N3CCCC3C(=O)N(C)[C@@H]([C@H](C)O)C(=O)N[C@@H](C)C(=O)N2C1 (stereo partly drawn) [Compound 36, (S)-3-(3,5-Difluorophenyl)-N-((2S,6S,9S,11aS,17S,18S,20aS)-9-((S)-1-Hydroxyethyl)-2,6,10,18-Tetramethyl-5,8,11,16,20-Pentaoxohexadecahydro-1H,5H,16H-Dipyrrolo[2,1-C:2′,1′-L][1]Oxa[4,7,10,13]Tetraazacyclohexadecin-17-Yl)-2-(3-(4-(Trifluoromethoxy)Phenyl)Ureido)Propanamide]	–	–	50	–	–	–	–	0.2 (≈ 0.176 µg/mL)	0.024 (≈ 0.0212 µg/mL)	0.1 (≈ 0.0882 µg/mL)	0.1 (≈ 0.0882 µg/mL)	0.05 (≈ 0.0441 µg/mL)	0.1 (≈ 0.0882 µg/mL)	–	–
CN(C)[C@@H]1C(O)=C(C(N)=O)C(=O)[C@@]2(O)C(O)=C3C(=O)c4c(O)cccc4[C@@](C)(O)[C@H]3C[C@@H]12 [Tetracycline, tetracycline, reference compound]	–	–	–	–	–	–	–	–	–	–	–	–	–	12.5	0.1 (≈ 0.0444 µg/mL)
